Among the test systems are OVCAR-3; DU-145; HOP-62; TK-10; OVCAR-8; SF-539; SN12C; EKVX; MDA-MB-435; SNB-19; HL-60; NCI-H226; IGROV-1; LOX IMVI; NCI-H522; SK-MEL-5; MDA-N; SK-OV-3; KM12; PC-3.
Common to all, as to assay: NCI tumour cell line growth inhibition, 48 h

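Five concentrations, 48 hours, 96-well plates. GI50 = concentration required for 50% inhibition of growth.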 Calls of active or inactive are those of the source. Rule as the data show it: active = GI50 up to about 1.1 µM and inactive = higher.

This note sets out measurements from ChEMBL document CHEMBL1201862, “PubChem BioAssay data set” (2004).

For `COC(=O)[C@H](Cc1ccccc1)NP(=O)(O)OCC1OC(n2cc(C)c(=O)[nH]c2=O)CC1N=[N+]=[N-]` (stereo not given in full), the GI50 in the experiment on OVCAR-3, in the experiment with DU-145, in the experiment with HOP-62, with TK-10, in the experiment with OVCAR-8 and in the experiment on SF-539 was > 100 µM (inactive) throughout. Besides, the GI50 with SN12C, in the experiment on EKVX, with MDA-MB-435, with SNB-19, with HL-60 and in the experiment with NCI-H226 was > 100 µM (inactive) each time. The GI50 in the experiment on IGROV-1, in the experiment with LOX IMVI, in the experiment with NCI-H522, in the experiment on SK-MEL-5, in the experiment on MDA-N and in the experiment on SK-OV-3 was > 100 µM (inactive) each time. The GI50 with KM12 and with PC-3 was > 100 µM (inactive) throughout.
Consider `CCOC(=O)c1[nH]c(Br)c(-c2ccc(Br)cc2)c1Br`, for which the GI50 is 0.237 µM (active) in the experiment with OVCAR-3; 1.66 µM (inactive) in the experiment on DU-145; 0.671 µM (active) in the experiment on HOP-62; 3.23 µM (inactive) in the experiment with TK-10; 0.527 µM (active) with OVCAR-8; 0.441 µM (active) with SF-539. The GI50 is 0.45 µM (active) with SN12C; 7.18 µM (inactive) with EKVX; 0.186 µM (active) in the experiment on MDA-MB-435; 1.3 µM (inactive) in the experiment with SNB-19; 2.09 µM (inactive) in the experiment with HL-60; 1.31 µM (inactive) in the experiment with NCI-H226. The GI50 in the experiment with IGROV-1 is 0.601 µM (active); in the experiment on LOX IMVI it was 0.446 µM (active); in the experiment with NCI-H522, 0.378 µM (active); in the experiment with SK-MEL-5 it was 0.375 µM (active); in the experiment with MDA-N, 0.213 µM (active); in the experiment with SK-OV-3 it was 1.69 µM (inactive). The results for the GI50 with KM12 and with PC-3 were 0.459 µM (active) and 0.705 µM (active), respectively.
Take `C=C1CC/C=C(\C)C(=O)C[C@@H]2[C@@H]1CC2(C)C` [BUDDLEDIN C]: the GI50 is 6.34 µM (inactive) in the experiment on OVCAR-3; 3.16 µM (inactive) in the experiment on DU-145; 15.3 µM (inactive) with HOP-62; 3.13 µM (inactive) in the experiment on TK-10; 4.7 µM (inactive) in the experiment with OVCAR-8; 2.31 µM (inactive) in the experiment on SF-539. For the same compound, the GI50 is 1.59 µM (inactive) in the experiment on SN12C; 7.45 µM (inactive) in the experiment on EKVX; 1.43 µM (inactive) in the experiment with MDA-MB-435; 12.6 µM (inactive) in the experiment with SNB-19; 0.129 µM (active) in the experiment with HL-60; 14.8 µM (inactive) in the experiment with NCI-H226. Moreover, the GI50 with IGROV-1 was 3.26 µM (inactive); in the experiment on LOX IMVI, 1.17 µM (inactive); with NCI-H522, 0.439 µM (active); in the experiment with SK-MEL-5 it was 2.84 µM (inactive); in the experiment on MDA-N it was 1.2 µM (inactive); in the experiment with SK-OV-3, 20.3 µM (inactive). Also, the GI50 in the experiment on KM12 is 15 µM (inactive); in the experiment with PC-3, 9.14 µM (inactive).
For the compound `O=c1oc2ccccc2c(Nc2ccc3c(c2)Sc2ccccc2O3)c1[N+](=O)[O-]`, the GI50 in the experiment with OVCAR-3 was 17.1 µM (inactive); in the experiment on DU-145 it was 27.8 µM (inactive); in the experiment with HOP-62, 29.4 µM (inactive); in the experiment on TK-10 it was 23.6 µM (inactive); in the experiment on OVCAR-8 it was 30.8 µM (inactive); with SF-539, 26.3 µM (inactive). Further, the GI50 in the experiment with SN12C is 28.9 µM (inactive); with EKVX, 22.9 µM (inactive); in the experiment with MDA-MB-435 it was 29.2 µM (inactive); with SNB-19 it was 27 µM (inactive); in the experiment with HL-60, 29.7 µM (inactive); with NCI-H226 it was 23.2 µM (inactive). Also, the GI50 in the experiment with IGROV-1 was 26.2 µM (inactive); with LOX IMVI it was 33.3 µM (inactive); in the experiment with NCI-H522, 16.4 µM (inactive); in the experiment with SK-MEL-5, 15.8 µM (inactive); in the experiment with MDA-N it was 30.9 µM (inactive); in the experiment with SK-OV-3 it was 35.2 µM (inactive). Moreover, the GI50 in the experiment with KM12 is 24.7 µM (inactive); in the experiment with PC-3, 19.4 µM (inactive).
In the case of `O=C(OCc1ccccc1)c1ccc(NCc2cc(O)ccc2O)cc1`, the GI50 with OVCAR-3 is 1 µM (active); in the experiment on DU-145, 3.15 µM (inactive); in the experiment with HOP-62, 7.43 µM (inactive); in the experiment on TK-10 it was 1.95 µM (inactive); in the experiment on OVCAR-8 it was 1.42 µM (inactive); in the experiment with SF-539, 0.902 µM (active). For the same compound, the GI50 was 1.38 µM (inactive) in the experiment with SN12C; 1.75 µM (inactive) in the experiment on EKVX; 1.58 µM (inactive) with MDA-MB-435; 2.85 µM (inactive) in the experiment with SNB-19; 0.303 µM (active) in the experiment with HL-60; 2.42 µM (inactive) in the experiment on NCI-H226. Moreover, the GI50 in the experiment on IGROV-1 was 1.23 µM (inactive); in the experiment on LOX IMVI, 1.14 µM (inactive); in the experiment with NCI-H522 it was 0.35 µM (active); with SK-MEL-5 it was 1.52 µM (inactive); with MDA-N, 1.56 µM (inactive); in the experiment on SK-OV-3 it was 2.7 µM (inactive). In addition, the GI50 with KM12 was 1.52 µM (inactive); in the experiment with PC-3, 1.36 µM (inactive).
Consider `Nc1nc(N)c(N=O)c(Nc2ccc(O)cc2)n1`, for which the GI50 with OVCAR-3 is 47.2 µM (inactive); in the experiment on DU-145, 34.6 µM (inactive); with HOP-62, 37.5 µM (inactive); in the experiment on TK-10, > 63 µM (inactive); in the experiment on OVCAR-8 it was 32 µM (inactive); in the experiment on SF-539, 6.56 µM (inactive). Moreover, the GI50 was 31.1 µM (inactive) in the experiment with SN12C; > 69.8 µM (inactive) in the experiment with EKVX; 38.7 µM (inactive) in the experiment on MDA-MB-435; > 52 µM (inactive) in the experiment on SNB-19; 9.53 µM (inactive) in the experiment on HL-60; 23.7 µM (inactive) in the experiment with NCI-H226. The GI50 with IGROV-1 is 7.82 µM (inactive); in the experiment on LOX IMVI it was 30.3 µM (inactive); in the experiment on NCI-H522, 15.9 µM (inactive); in the experiment on SK-MEL-5 it was 26.5 µM (inactive); in the experiment on MDA-N it was 28.8 µM (inactive); with SK-OV-3 it was 18.1 µM (inactive). Besides, the values for the GI50 in the experiment on KM12 and with PC-3 were > 57.4 µM (inactive) and 32.2 µM (inactive), respectively.
For `COc1cc2cc3c4cc(OC)c(OC)cc4cc[n+]3c(C)c2cc1OC.O=C([O-])CS(=O)(=O)O`, the GI50 with OVCAR-3 is 78.9 µM (inactive); in the experiment with DU-145, 28.4 µM (inactive); in the experiment with HOP-62, 42.8 µM (inactive); with TK-10, > 100 µM (inactive); in the experiment with OVCAR-8 it was 24.3 µM (inactive); with SF-539 it was 42.7 µM (inactive). The GI50 with SN12C is 3.27 µM (inactive); in the experiment with EKVX, > 100 µM (inactive); in the experiment on MDA-MB-435 it was 42.3 µM (inactive); in the experiment on SNB-19, 17.7 µM (inactive); in the experiment on HL-60 it was 24.2 µM (inactive); in the experiment with NCI-H226, 10.8 µM (inactive). Further, the GI50 was 80.9 µM (inactive) in the experiment with IGROV-1; > 100 µM (inactive) in the experiment on LOX IMVI; 4.88 µM (inactive) in the experiment with NCI-H522; 80 µM (inactive) in the experiment with SK-MEL-5; 49.4 µM (inactive) with MDA-N; > 100 µM (inactive) in the experiment with SK-OV-3. Also, the GI50 in the experiment on KM12 was > 100 µM (inactive); in the experiment with PC-3, 74.5 µM (inactive).
